Source: patent US11236047B2 (ASTEX THERAPEUTICS LIMITED, priority 2017, dated 2022)

Tested on: SJSA-1 cells
Test: Protocol B: SJSA-1 CellTiter-Glo luminescent cell viability assay
Conditions: Homo sapiens, SJSA-1, read-out: SJSA1 IC50 (μM) (Protocol B), SJSA-1, Protocol B
Method: Protocol B: SJSA-1 and SN40R2 Assays
The CellTiter-Glo® Luminescent Cell Viability Assay is a homogeneous method to determine the number of viable cells in culture based on quantitation of the ATP present, which signals the presence of metabolically active cells. […] 100 μl of CTG reagent (Promega #G7573) was added to all wells and luminescence was measured on the topcount. The EC50 values were determined from a sigmoidal 4 parameter curve fit using XLfit in conjunction with Activity Base (IDBS; Guildford, Surrey, UK).

SMILES	IC50
CN(C)CC(C)(O)c1cc(F)c2c(c1)C(=O)N(Cc1ccc(Cl)cn1)[C@@]2(O[C@H]1CCOC1)c1ccc(Cl)cc1 (single isomer, unassigned) [Example 138]	0.56 µM
Cn1cc(C(C)(O)c2cc(F)c3c(c2)C(=O)N(Cc2ccc(Cl)cn2)[C@@]3(OCC2(C(N)=O)CC2)c2ccc(Cl)cc2)cn1 (single isomer, unassigned) [Example 178]	0.1 µM
CCn1cc(C(C)(O)c2cc(F)c3c(c2)C(=O)N(Cc2ccc(Cl)cn2)[C@@]3(OCC2(C(N)=O)CC2)c2ccc(Cl)cc2)cn1 (single isomer, unassigned) [Example 180]	0.16 µM
CO[C@]1(c2ccc(Cl)cc2)c2c(F)cc(C(C)(O)c3cn(C)nn3)cc2C(=O)N1Cc1ccc(Cl)cn1 (single isomer, unassigned) [Example 187]	0.89 µM
CC(O)(c1cc(F)c2c(c1)C(=O)N(Cc1ccc(Cl)cn1)[C@@]2(OCC1(C(N)=O)CC1)c1ccc(Cl)cc1)c1cscn1 (single isomer, unassigned) [Example 193]	0.14 µM
Cc1nc(C(C)(O)c2cc(F)c3c(c2)C(=O)N(Cc2ccc(Cl)cn2)[C@@]3(OCC2(C(N)=O)CC2)c2ccc(Cl)cc2)cn1C (single isomer, unassigned) [Example 197]	0.21 µM
CO[C@]1(c2ccc(Cl)cc2)c2c(F)cc(C(C)(O)C3CCS(=O)(=O)CC3)cc2C(=O)N1Cc1ccc(Cl)cn1 (single isomer, unassigned) [Example 311]	0.25 µM
CC(O)(c1cc(F)c2c(c1)C(=O)N(Cc1ccc(Cl)cn1)[C@@]2(OCCO)c1ccc(Cl)cc1)C1CCS(=O)(=O)CC1 (single isomer, unassigned) [Example 313]	0.95 µM
CC(O)(c1cc(F)c2c(c1)C(=O)N(Cc1ccc(Cl)cn1)[C@@]2(OCC1(O)CC1)c1ccc(Cl)cc1)c1ncccn1 (single isomer, unassigned) [Example 396]	0.28 µM

Same assay, conditions: SJSA-1, Protocol B, at 10 μM

SMILES	SJSA1 (Protocol B) % at stated concentration
CC(O)(c1cc(F)c2c(c1)C(=O)N(Cc1ccc(Cl)cn1)[C@@]2(OCCO)c1ccc(Cl)cc1)C1CCS(=O)(=O)CC1 (single isomer, unassigned) [Example 314]	66% at 10

Same assay, conditions: read-out: SJSA1 IC50 (μM) (Protocol B); SJSA-1, Protocol B

SMILES	IC50
CCOCC(C)(O)c1cc(F)c2c(c1)C(=O)N(Cc1ccc(Cl)cn1)[C@@]2(O[C@H]1CCOC1)c1ccc(Cl)cc1 (single isomer, unassigned) [Example 140]	0.23 µM
CCOCC(C)(O)c1cc(F)c2c(c1)C(=O)N(Cc1ccc(Cl)cn1)[C@@]2(O[C@H]1CCOC1)c1ccc(Cl)cc1 (single isomer, unassigned) [Example 141]	1.8 µM
[2H]C([2H])([2H])OCC(C)(O)c1cc(F)c2c(c1)C(=O)N(C([2H])([2H])c1ccc(Cl)cn1)[C@@]2(O[C@H]1CCOC1)c1ccc(Cl)cc1 (single isomer, unassigned) [Example 142]	0.23 µM
[2H]C([2H])([2H])OCC(C)(O)c1cc(F)c2c(c1)C(=O)N(C([2H])([2H])c1ccc(Cl)cn1)[C@@]2(O[C@H]1CCOC1)c1ccc(Cl)cc1 (single isomer, unassigned) [Example 143]	0.86 µM
CO[C@]1(c2ccc(Cl)cc2)c2c(F)cc(C(C)(O)c3ncc[nH]3)cc2C(=O)N1Cc1ccc(Cl)cn1 (single isomer, unassigned) [Example 164]	2.2 µM
CO[C@]1(c2ccc(Cl)cc2)c2c(F)cc(C(C)(O)c3nccs3)cc2C(=O)N1Cc1ccc(Cl)cn1 (single isomer, unassigned) [Example 166]	3.8 µM
CCn1cc(C(C)(O)c2cc(F)c3c(c2)C(=O)N(Cc2ccc(Cl)cn2)[C@@]3(OCC2(O)CC2)c2ccc(Cl)cc2)cn1 (single isomer, unassigned) [Example 183]	0.43 µM
CCn1cc(C(C)(O)c2cc(F)c3c(c2)C(=O)N(Cc2ccc(Cl)cn2)[C@@]3(OCC2(O)CC2)c2ccc(Cl)cc2)cn1 (single isomer, unassigned) [Example 184]	0.14 µM
Cc1nnc(C(C)(O)c2cc(F)c3c(c2)C(=O)N(Cc2ccc(Cl)cn2)[C@@]3(OCC2(O)CC2)c2ccc(Cl)cc2)o1 (single isomer, unassigned) [Example 185]	2.2 µM
Cc1nnc(C(C)(O)c2cc(F)c3c(c2)C(=O)N(Cc2ccc(Cl)cn2)[C@@]3(OCC2(O)CC2)c2ccc(Cl)cc2)o1 (single isomer, unassigned) [Example 186]	0.42 µM
CO[C@]1(c2ccc(Cl)cc2)c2c(F)cc(C(C)(O)c3ccn(C)n3)cc2C(=O)N1Cc1ccc(Cl)cn1 (single isomer, unassigned) [Example 189]	1 µM
CO[C@]1(c2ccc(Cl)cc2)c2c(F)cc(C(C)(O)c3ccn(C)n3)cc2C(=O)N1Cc1ccc(Cl)cn1 (single isomer, unassigned) [Example 190]	5 µM
Cn1cnc(C(C)(O)c2cc(F)c3c(c2)C(=O)N(Cc2ccc(Cl)cn2)[C@@]3(OCC2(O)CC2)c2ccc(Cl)cc2)c1 (single isomer, unassigned) [Example 195]	0.61 µM
Cn1cnc(C(C)(O)c2cc(F)c3c(c2)C(=O)N(Cc2ccc(Cl)cn2)[C@@]3(OCC2(O)CC2)c2ccc(Cl)cc2)c1 (single isomer, unassigned) [Example 196]	0.15 µM
Cn1cc(C(C)(O)c2cc(F)c3c(c2)C(=O)N(Cc2ccc(Cl)cn2)[C@@]3(OCC2(O)CC2)c2ccc(Cl)cc2)cn1 (single isomer, unassigned) [Example 199]	0.83 µM
Cn1cc(C(C)(O)c2cc(F)c3c(c2)C(=O)N(Cc2ccc(Cl)cn2)[C@@]3(OCC2(O)CC2)c2ccc(Cl)cc2)cn1 (single isomer, unassigned) [Example 200]	0.099 µM

SMILES	IC50
Cn1cc(C(C)(O)c2cc(F)c3c(c2)C(=O)N(Cc2ccc(Cl)cn2)[C@@]3(OCC2(C#N)CC2)c2ccc(Cl)cc2)cn1 (single isomer, unassigned) [Example 201]	0.76 µM
Cn1cc(C(C)(O)c2cc(F)c3c(c2)C(=O)N(Cc2ccc(Cl)cn2)[C@@]3(OCC2(C#N)CC2)c2ccc(Cl)cc2)cn1 (single isomer, unassigned) [Example 202]	0.11 µM
Cn1cc(C(C)(O)c2cc(F)c3c(c2)C(=O)N(Cc2ncc(Cl)cn2)[C@@]3(OCC2(O)CC2)c2ccc(Cl)cc2)cn1 (single isomer, unassigned) [Example 203]	0.08 µM
Cn1cc(C(C)(O)c2cc(F)c3c(c2)C(=O)N(Cc2ncc(Cl)cn2)[C@@]3(OCC2(O)CC2)c2ccc(Cl)cc2)cn1 (single isomer, unassigned) [Example 204]	0.94 µM
CC(O)(CN1CCCC1)c1cc(F)c2c(c1)C(=O)N(Cc1ccc(C#N)cn1)[C@@]2(OCC1(C#N)CC1)c1ccc(Cl)cc1 (single isomer, unassigned) [Example 276]	2.5 µM
CC(O)(CN1CCCC1)c1cc(F)c2c(c1)C(=O)N(Cc1ccc(C#N)cn1)[C@@]2(OCC1(C#N)CC1)c1ccc(Cl)cc1 (single isomer, unassigned) [Example 277]	1.2 µM
CN1CCN(CC(C)(O)c2cc(F)c3c(c2)C(=O)N(Cc2ccc(C#N)cn2)[C@@]3(OCC2(C#N)CC2)c2ccc(Cl)cc2)CC1 (single isomer, unassigned) [Example 278]	2.6 µM
CN1CCN(CC(C)(O)c2cc(F)c3c(c2)C(=O)N(Cc2ccc(C#N)cn2)[C@@]3(OCC2(C#N)CC2)c2ccc(Cl)cc2)CC1 (single isomer, unassigned) [Example 279]	0.57 µM
CO[C@]1(c2ccc(Cl)cc2)c2c(F)cc(C(C)(O)C3CCN(C(=O)CN(C)C)CC3)cc2C(=O)N1Cc1ccc(Cl)cn1 (single isomer, unassigned) [Example 298]	0.55 µM
CO[C@]1(c2ccc(Cl)cc2)c2c(F)cc(C(C)(O)C3CCN(C(=O)CN(C)C)CC3)cc2C(=O)N1Cc1ccc(Cl)cn1 (single isomer, unassigned) [Example 299]	2 µM
Cc1nc(C(C)(O)c2cc(F)c3c(c2)C(=O)N(Cc2ccc(Cl)cn2)[C@@]3(OCC2(O)CC2)c2ccc(Cl)cc2)cn1C (single isomer, unassigned) [Example 324]	2.2 µM
Cc1nc(C(C)(O)c2cc(F)c3c(c2)C(=O)N(Cc2ccc(Cl)cn2)[C@@]3(OCC2(O)CC2)c2ccc(Cl)cc2)cn1C (single isomer, unassigned) [Example 325]	0.24 µM
Cn1cc(C(C)(O)c2cc(F)c3c(c2)C(=O)N(Cc2ncc(Cl)cn2)[C@@]3(OCC2(CO)CC2)c2ccc(Cl)cc2)cn1 (single isomer, unassigned) [Example 348]	0.27 µM
Cn1cc(C(C)(O)c2cc(F)c3c(c2)C(=O)N(Cc2ncc(Cl)cn2)[C@@]3(OCC2(CO)CC2)c2ccc(Cl)cc2)cn1 (single isomer, unassigned) [Example 349]	0.028 µM
Cn1cc(C(C)(O)c2cc(F)c3c(c2)C(=O)N(Cc2ccc(C#N)cn2)[C@@]3(O[C@H]2C[C@@H](O)C2)c2ccc(Cl)cc2)cn1 (single isomer, unassigned) [Example 355, 6-{[1-(4-chlorophenyl)-7-fluoro-5-[1-hydroxy-1-(1-methyl-1H-pyrazol-4-yl)ethyl]-3-oxo-1-[cis-3-hydroxycyclobutoxy]-2,3-dihydro-1H-isoindol-2-yl]methyl}pyridine-3-carbonitrile]	4.7 µM
Cn1cc(C(C)(O)c2cc(F)c3c(c2)C(=O)N(Cc2ccc(C#N)cn2)[C@@]3(O[C@H]2C[C@@H](O)C2)c2ccc(Cl)cc2)cn1 (single isomer, unassigned) [Example 356, 6-{[1-(4-chlorophenyl)-7-fluoro-5-[1-hydroxy-1-(1-methyl-1H-pyrazol-4-yl)ethyl]-3-oxo-1-[cis-3-hydroxycyclobutoxy]-2,3-dihydro-1H-isoindol-2-yl]methyl}pyridine-3-carbonitrile]	0.96 µM

Same assay, conditions: read-out: SJSA1 IC50; Protocol B, SJSA-1

SMILES	IC50
CCC(O)(c1cc(F)c2c(c1)C(=O)N(Cc1ccc(C#N)cn1)[C@@]2(OCC1(CO)CC1)c1ccc(Cl)cc1)c1cn(C)cn1 (single isomer, unassigned) [Example 337]	0.058 µM
CCC(O)(c1cc(F)c2c(c1)C(=O)N(Cc1ncc(C#N)cn1)[C@@]2(O[C@H]1CCOC1)c1ccc(Cl)cc1)c1cn(C)cn1 (single isomer, unassigned) [Example 369]	0.062 µM
